The target in one assay is T1, human recombinant PGHS-2 (Homo sapiens, UniProt P35354).
T1 construct: made in house; host or cells: baculovirus/Sf9 insect cells (microsomes)
T1 sequence (P35354 18-604): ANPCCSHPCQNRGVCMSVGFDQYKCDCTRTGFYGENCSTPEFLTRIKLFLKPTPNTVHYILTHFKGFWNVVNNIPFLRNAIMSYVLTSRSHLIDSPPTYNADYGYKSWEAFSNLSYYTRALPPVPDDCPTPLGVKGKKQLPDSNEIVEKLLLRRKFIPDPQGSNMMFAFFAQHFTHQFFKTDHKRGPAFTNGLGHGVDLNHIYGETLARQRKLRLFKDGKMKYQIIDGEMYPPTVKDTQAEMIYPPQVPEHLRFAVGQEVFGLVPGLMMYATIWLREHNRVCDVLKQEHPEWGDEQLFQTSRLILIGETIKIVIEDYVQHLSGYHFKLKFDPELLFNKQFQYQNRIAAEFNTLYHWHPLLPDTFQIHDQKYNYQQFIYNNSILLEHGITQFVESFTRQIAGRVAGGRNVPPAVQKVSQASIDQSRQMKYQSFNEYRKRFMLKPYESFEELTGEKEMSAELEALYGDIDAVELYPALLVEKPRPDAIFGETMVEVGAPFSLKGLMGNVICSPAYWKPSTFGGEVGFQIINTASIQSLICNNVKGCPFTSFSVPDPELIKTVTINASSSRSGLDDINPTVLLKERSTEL
As to the kind of experiment: Inhibition of prostaglandin biosynthesis (PGE2 by EIA), recombinant human PGHS-2 enzyme assay. The format is biochemical. The conditions noted are these: 60 min preincubation, 10 μM arachidonic acid. How it is done:
(§1) Inhibition of prostaglandin biosynthesis was evaluated in recombinant human PGHS-1 and PGHS-2 enzyme assays. Representative compounds dissolved in DMSO (3.3% v/v) were preincubated with microsomes from recombinant human PGHS-1 or PGHS-2 expressed in the baculovirus/Sf9 cell system (Gierse, J. K., Hauser, S. D., Creely, D. P., Koboldt, C., Rangwala, S., H., Isakson, P. C., and Seibert, K. Expression and selective inhibition of the constituitive and inducible forms of cyclooxygenase Biochem J. 1995, 305: 479.), together with the cofactors phenol (2 mM) and hematin (1 μM) for 60 minutes prior to the addition of 10 μM arachidonic acid. The reaction was allowed to run for 2.5 minutes at room temperature prior to quenching with HCl and neutralization with NaOH. PGE2 production in the presence and absence of the drug was determined by EIA analysis. The EIA was conducted in 96 well microtiter plates (Nunc Roskilde, Denmark) and optical density measured using a microplate reader (Vmax, Molecular Devices Corp., Menlo Park, Calif.). EIA reagents for prostaglandin determination were purchased from Perseptive Diagnostics, Cambridge, Mass. PGE2 levels were measured against standards prepared in the same milieu. The immunoassays were conducted as recommended by the manufacturer.

A further assay has as its target T2, human recombinant PGHS-1 (Homo sapiens, UniProt P23219).
T2 construct: made in house; host or cells: baculovirus/Sf9 insect cells (microsomes)
As to the kind of experiment: Inhibition of prostaglandin biosynthesis (PGE2 by EIA), recombinant human PGHS-1 enzyme assay. The format is biochemical. The conditions noted are these: 60 min preincubation, 10 μM arachidonic acid. How it is done: as §1

A further assay relates to PGHS-1. The settings on record: in words, from literature; cited from earlier work.
A further assay has as its system PGHS-2. The settings on record: in words, from literature; cited from earlier work.

Consider four compounds from patent publication US5840758A, “Oxime derivatives of fenamates as inhibitors of prostaglandin biosynthesis” (Abbott Laboratories, priority 1996, dated 1998).

T2 sequence (P23219 24-599): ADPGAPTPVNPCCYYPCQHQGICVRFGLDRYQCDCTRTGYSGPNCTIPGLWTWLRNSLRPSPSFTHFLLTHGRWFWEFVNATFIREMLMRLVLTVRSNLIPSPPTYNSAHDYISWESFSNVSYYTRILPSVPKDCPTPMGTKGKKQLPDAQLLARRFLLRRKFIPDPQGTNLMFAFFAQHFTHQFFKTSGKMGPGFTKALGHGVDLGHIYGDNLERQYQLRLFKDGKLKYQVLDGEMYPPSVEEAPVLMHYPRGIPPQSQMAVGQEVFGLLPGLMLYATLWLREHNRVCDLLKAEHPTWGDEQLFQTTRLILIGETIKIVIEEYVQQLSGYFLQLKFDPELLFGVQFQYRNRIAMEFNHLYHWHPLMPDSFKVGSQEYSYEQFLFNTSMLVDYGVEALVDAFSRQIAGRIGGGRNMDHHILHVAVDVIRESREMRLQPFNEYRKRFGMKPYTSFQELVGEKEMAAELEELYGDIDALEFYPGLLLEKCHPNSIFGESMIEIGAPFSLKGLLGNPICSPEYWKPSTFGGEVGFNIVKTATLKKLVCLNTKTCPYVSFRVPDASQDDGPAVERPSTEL

On to `Cc1ccc(Cl)c(Nc2ccccc2C=NOCC(=O)O)c1Cl` [Example 1, 2-[(2,6-dichloro-3-methylphenyl)amino]benzaldehyde-O-carboxymethyl oxime], for which the IC50 came to 22 nM at human recombinant PGHS-2 and 850 nM on human recombinant PGHS-1.
`Cc1ccc(Cl)c(Nc2ccccc2C(=O)O)c1Cl` [Meclofenamic acid]: the “inhibition of PGHS-1” value in the assay with PGHS-1 was “inhibit both PGHS-1 and PGHS-2”. For the same compound, the “inhibition of PGHS-2” value in the assay on PGHS-2 is “inhibit both PGHS-1 and PGHS-2”.
For the compound `CC(C)Cc1ccc(C(C)C(=O)O)cc1` (centres unmarked) [ibuprofen], the “inhibition of PGHS-1” value with PGHS-1 is on record as “inhibit both isozymes”. For the same compound, the “inhibition of PGHS-2” value in the assay with PGHS-2 is given as “inhibit both isozymes”.
Consider `COc1ccc2cc([C@H](C)C(=O)O)ccc2c1` [naproxen], for which, in the assay with PGHS-1, the “inhibition of PGHS-1” value is “inhibit both isozymes”. In addition, in the assay on PGHS-2, the “inhibition of PGHS-2” value is listed as “inhibit both isozymes”.
